# In patent US20210330756A1, “Acetylation of Miro1” (University of South Carolina, priority 2020, published 2021):
# System: axonal mitochondria of DRG neurons
# Assay: Live cell imaging of axonal mitochondrial movement in cultured DRG neurons
# Format: cell-based, rat
# From the text: HDAC6 inhibition was previously shown to increase transport of mitochondria in axons of embryonic rodent hippocampal and chick sensory neurons (Chen et al., 2010; Kim et al., 2012; Rui and Zheng, 2016; Sainath et al., 2017), and axonal mitochondrial transport has been linked to axon growth (Steketee et al., 2012; Cartoni et al., 2016; Lewis et al., 2016; Zhou et al., 2016). By live cell imaging with MitoTracker to visualize mitochondria, DRG neurons appeared to show increased anterograde versus retrograde mitochondrial movement along axons (FIG. 3 at A and B). […] (A and B) Representative images from CALI time lapse sequence are shown for DRGs cultured on laminin and treated with vehicle control (DMSO) versus 10 μM TubA for 1 h (A). BFP is shown in blue as an axonal marker and Mito-KR signal is shown in red. Boxed regions represent ROI for distal axon and growth cone that was subjected to photoactivation of Mito-KR to ablate mitochondria. […] (C and D) Quantifications of percentage of axons retracting (C) and retraction distance (D) from image sequences as in A are shown as average±SEM (n≥13 across three culture preparations; ***, P≤0.005 by one-way ANOVA with Bonferroni post hoc analysis). (E) Recovery of Mito-KR red fluorescence in photoactivated ROI from image sequences as in A is shown as average of normalized percentage recovery±SEM (n≥13 axons from three independent experiments; *, P≤0.05; **, P≤0.01; ***, P≤0.005 vs. t=0; ###, P≤0.005; ####, P≤0.001, #####, P≤0.0005 for TubA vs. control; and NS vs. t=0 s by one-way ANOVA with Bonferroni post hoc analysis). […]
# Quantification of growth cone mitochondria was performed using high-magnification images from living neurons transfected with either Mito-KR or incubated with MitoTracker. […] Only mitochondria that could be distinguished as a single mitochondrion were counted; if this was not possible, that growth cone was not included in the analysis. […]
# Vesicle trafficking was quantified using differential ImageJ Difference Tracker Plug-in (Andrews et al., 2010). […] Movement of ≥0.5 μm toward the axon shaft was counted as retracted. […]
structure (smiles),measurement,setting,value
"CN1CCc2c(c3ccccc3n2Cc2ccc(C(=O)NO)cc2)C1 [TubA, tubastatin]",mitochondrial profiles in growth cones,"10 μM TubA, 1 h vs vehicle",significant increase in mitochondrial profiles in the growth cones
same,"speed, track durations, directionality of axonal mitochondrial movements","HDAC6-inhibited (10 μM TubA) vs control, laminin",no significant differences
same,anterogradely vs retrogradely moving mitochondria in axons,HDAC6-inhibited cultures,more anterogradely than retrogradely moving mitochondria
